Results reported in publication PMC8232621, “Antimicrobial Activity of a Library of Thioxanthones and Their Potential as Efflux Pump Inhibitors” (Pharmaceuticals, 2021).
Like-named read-outs stand apart in the source and are kept apart here.

What was measured:
[1] = Cytotoxicity in NIH/3T3 cell line (MTT assay); assay type: cell-based; conditions: mouse, read-out: IC50 (µM) ± SD, cytotoxicity
Procedure: Before each cytotoxicity assay using this cell line, cells were seeded in untreated 96-well flat-bottom microtiter plates, following a 4-hour incubation period in a humidified atmosphere (5% CO2, 95% air) at 37 °C [47]. […] Prior to the assay, the cells were seeded for 4 h using 1 × 10^4 cells/well. […] The plates were incubated for 24 h, after which a solution of MTT in PBS was added to each well and incubated for another 4 h. After this, 100 μL of SDS (10% in a 0.01 M HCl solution) was added to each well and incubated overnight at 37 °C. Doxorubicin was used as a positive control. Cell growth was determined in quadruplicate by measuring OD at λ = 540 nm (reference 630 nm) in a Multiscan EX ELISA reader (Thermo Labsystems, Cheshire, WA, USA). […] (2) 100−ODsample−ODmedium control/ODcell control−ODmedium control×100 […]

P-glycoprotein (P-gp) [2] = target: T1, P-glycoprotein (P-gp) (Homo sapiens, UniProt P08183); assay: P-gp transport activity, RHO 123 accumulation in Caco-2 cells in presence of compounds (90 min); assay type: cell-based; conditions: 20 µM only during the 90 min incubation with RHO 123
T1 construct: P-glycoprotein (P-gp) activity assessed by fluorescence spectroscopy in Caco-2 cells; endogenous in cells; host or cells: Caco-2 cells (ECACC)
T1 sequence (P08183 whole entry): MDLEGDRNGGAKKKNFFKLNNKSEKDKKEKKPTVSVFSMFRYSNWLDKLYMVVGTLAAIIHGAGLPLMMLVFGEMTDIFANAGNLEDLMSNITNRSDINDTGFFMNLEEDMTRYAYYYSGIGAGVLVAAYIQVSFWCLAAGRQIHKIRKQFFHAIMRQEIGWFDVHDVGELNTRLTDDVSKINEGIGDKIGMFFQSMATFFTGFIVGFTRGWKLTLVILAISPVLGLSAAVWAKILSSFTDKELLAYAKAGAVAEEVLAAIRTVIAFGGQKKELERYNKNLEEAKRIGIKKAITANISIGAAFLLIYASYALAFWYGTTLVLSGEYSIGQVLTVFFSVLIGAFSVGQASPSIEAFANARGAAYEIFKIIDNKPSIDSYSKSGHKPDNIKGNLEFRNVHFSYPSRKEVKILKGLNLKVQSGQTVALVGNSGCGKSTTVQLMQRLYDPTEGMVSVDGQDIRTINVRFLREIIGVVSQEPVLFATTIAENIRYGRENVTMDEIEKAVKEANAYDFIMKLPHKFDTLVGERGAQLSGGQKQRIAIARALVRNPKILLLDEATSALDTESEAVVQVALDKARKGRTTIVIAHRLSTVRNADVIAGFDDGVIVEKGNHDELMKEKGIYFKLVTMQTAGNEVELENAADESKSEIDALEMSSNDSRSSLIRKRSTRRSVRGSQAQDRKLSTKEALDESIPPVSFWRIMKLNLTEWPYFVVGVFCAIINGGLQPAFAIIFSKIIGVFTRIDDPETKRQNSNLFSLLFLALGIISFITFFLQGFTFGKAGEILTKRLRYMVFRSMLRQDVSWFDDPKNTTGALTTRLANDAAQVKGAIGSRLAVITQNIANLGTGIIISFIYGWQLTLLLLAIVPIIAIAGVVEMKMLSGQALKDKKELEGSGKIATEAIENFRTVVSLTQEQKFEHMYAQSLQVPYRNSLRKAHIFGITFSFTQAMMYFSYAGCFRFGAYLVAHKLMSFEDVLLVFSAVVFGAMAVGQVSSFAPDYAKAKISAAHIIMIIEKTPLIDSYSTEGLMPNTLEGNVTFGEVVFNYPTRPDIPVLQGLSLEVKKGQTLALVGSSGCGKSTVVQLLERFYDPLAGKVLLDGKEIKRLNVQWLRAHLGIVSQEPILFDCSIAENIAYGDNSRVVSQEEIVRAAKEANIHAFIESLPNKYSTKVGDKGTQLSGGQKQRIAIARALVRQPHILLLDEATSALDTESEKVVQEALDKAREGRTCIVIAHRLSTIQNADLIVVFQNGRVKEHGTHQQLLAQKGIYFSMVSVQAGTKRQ
Procedure: Concerning the second experimental approach used to evaluate the effects of the compounds in P-gp activity, Caco-2 cells were exposed to thioxanthone derivatives (20 µM) only during the 90 min of incubation with the fluorescent substrate (RHO 123, 10 µM). This experimental approach aims to evaluate the potential immediate effects of thioxanthone derivatives on P-gp activity as a result of a direct inhibition or activation of the protein, i.e., not to change the protein expression. […] In contrast, compounds 12 and 13 caused a significant and immediate decrease in P-gp activity (to 82 and 85%, respectively), when compared to control cells (0 µM).
The effect of the tested compounds on P-gp activity was evaluated using rhodamine 123 (RHO 123) as a P-gp fluorescent substrate, and ZOS as a specific third-generation P-gp inhibitor. Indeed, several studies report the use of RHO 123 accumulation/efflux assays for the direct assessment of P-gp activity through the quantification of the intracellular fluorescence of the P-gp substrate. Caco-2 cells were seeded in 24-well plates at a density of 60,000 cells/cm^2 and, three days after seeding, and submitted to two different protocols of RHO 123 accumulation: 1) RHO 123 accumulation in cells pre-exposed to the compounds (20 µM) for 24 h; 2) RHO 123 accumulation in the presence of the tested compounds (20 µM) for 90 min, as previously described.
On the other hand, in the second protocol, the cells were exposed to the tested compounds 30 min prior to addition of the P-gp fluorescent substrate, RHO 123, and remained in contact with the cells only during the substrate accumulation period, thus aiming to detect immediate effects of the tested compounds on P-gp activity as a result of a direct P-gp activation or inhibition. For that purpose, three days after seeding, the cell culture medium was removed, and the cells submitted to the following procedures:
RHO 123 accumulation under normal conditions (NA): pre-exposure to compounds (20 μM), prepared in HBSS (+/+), for 30 min at 37 °C, followed by incubation with RHO 123 (5 μM) for 90 min, at 37 °C, in a humidified 5% CO2 and 95% O2 air atmosphere. Control cells were only exposed to RHO 123.
RHO 123 accumulation in the presence of the P-gp inhibitor (IA): simultaneous pre-exposure to compounds (20 μM) and ZOS (5 μM), both prepared in HBSS (+/+), for 30 min at 37 °C, followed by incubation with RHO 123 (5 μM) for 90 min, at 37 °C, in a humidified 5% CO2 and 95% O2 air atmosphere. Control cells were only exposed to ZOS and RHO 123.
After the 90 min of incubation with RHO 123, the cells were washed twice with HBSS (-/-) and lysed with 1% Triton™ X100, for 30 min, in the dark, at room temperature. RHO 123 intracellular fluorescence was then measured at excitation/emission wavelengths of 485/528 nm, in a multi-well plate reader (PowerWave-X, BioTek Instruments, VT, USA) and expressed as fluorescence intensity (FI). The ratio between the FI after inhibited RHO 123 accumulation (IA) and the FI of non-inhibited RHO 123 accumulation (NA) was the parameter used for comparison, and the results were expressed as a percentage of control cells (Equation (3)). Given the high autofluorescence of several of the tested compounds at the conditions used to measure RHO 123 fluorescence, only compounds 9, 10, 12, 13, and 14 were able to be tested for their potential immediate effect on P-gp activity. Four independent experiments were performed, in triplicate.

P-glycoprotein (P-gp) [3] = assay: Flow cytometry analysis of P-glycoprotein expression in Caco-2 cells (UIC2-PE antibody); assay type: cell-based, human; conditions: 20 µM, 24 h
Procedure: However, the ability of compounds 9–17 to interfere with the fluorescence of the UIC2-PE antibody was assessed first. For this purpose, Caco-2 cells were incubated for 24 h, in the presence or absence of thioxanthone derivatives (20 μM), and subsequently analysed, by flow cytometry, as described for the P-gp expression assay. A remarkable increase in the intracellular fluorescence of cells exposed to compounds 10–13 and 15–17 was observed, making it impossible to assess the effect of these thioxanthone derivatives on P-gp expression. In fact, compounds 15–17 had previously been reported as fluorescent compounds [15] and this characteristic limited some of the studies reported herein. […] Briefly, Caco-2 cells were seeded in 24-well plates at a density of 60,000 cells/cm^2 and exposed, three days after seeding, to a non-cytotoxic concentration of the tested compounds (20 µM). […] The cells were then washed twice with HBSS (+/+), centrifuged (300 g for 5 min, at 4 °C) and kept on ice until analysis. […] The parameter used for comparison was the mean fluorescence intensity (MFI), calculated as a percentage of control cells (0 μM). The cells autofluorescence (unlabelled cells with or without exposure to the tested compounds) was also evaluated to eliminate its potential contribution to the analysed fluorescence signals. […]

Row | Compound | IC50 at 24 h [1] [µM] | IC50 at 24 h ([1]; NIH/3T3 mouse fibroblast cells) [µM] | P-gp activity (control cells 100%) (P-glycoprotein (P-gp) [2]) | P-gp expression levels (control cells 100%) (P-glycoprotein (P-gp) [3])
1 | CCCOc1ccc(N2CCCCC2)c2c(=O)c3ccccc3sc12 [Compound 3] | > 100 |  |  | 
2 | CCCOc1ccc(Nc2nc(C)cc(C)n2)c2c(=O)c3ccccc3sc12 [Compound 8, 1-[(4,6-Dimethylpyrimidin-2-yl)amino]-4-propoxy-9H-thioxanthen-9-one] |  | > 100 |  | 
3 | CCCOc1ccc(N2CCNC(=O)C2)c2c(=O)c3ccccc3sc12 [Compound 9, 4-(9-Oxo-4-propoxy-9H-thioxanthen-1-yl)piperazin-2-one] |  |  | no significant differences | no significant differences
4 | CCCOc1ccc(NCCO)c2c(=O)c3ccccc3sc12 [Compound 10, 1-[(2-Hydroxyethyl)amino]-4-propoxy-9H-thioxanthen-9-one] |  |  | no significant differences | 
5 | CCCOc1ccc(NS(=O)(=O)c2ccc(C(=O)O)cc2)c2c(=O)c3ccccc3sc12 [Compound 12, 4-[N-(9-Oxo-4-propoxy-9H-thioxanthen-1-yl)sulfamoyl]benzoic acid] |  | 64.5 ± 4.54 | 82% | 
6 | CCCOc1ccc(NS(=O)(=O)c2ccc(N)cc2)c2c(=O)c3ccccc3sc12 [Compound 13, 4-Amino-N-(9-oxo-4-propoxy-9H-thioxanthen-1-yl)benzenesulfonamide] |  | > 100 | 85% | 
7 | CCCOc1ccc(Br)c2c(=O)c3ccccc3sc12 [Compound 14, 1-Bromo-4-propoxy-9H-thioxanthen-9-one] |  |  | 116% | 83%
8 | CCCOc1ccc2nc(NCc3ccccc3Cl)nc3c2c1Sc1ccccc1-3 [Compound 17] |  | > 100 |  | 
